Laboratory results published in PMC4773817 (2016).

What was measured:
[1] = system: FPS2.MT (labelled PS2.M) (DNA, G4) GTGGGTAGGGCGGGTTGG; assay: FRET melting; details: not printed (procedure from ref. 50); 3 μM compound, 0.2 μM DNA
[2] = system: F10T (DNA, hairpin, hexaethylene glycol (HEG) linker between nucleotides 8 and 9) TATAGCTATATAGCTATAT; assay: FRET melting; details: 3 μM compound, 0.2 μM DNA; no significant variation
[3] = system: CCR5-DEL (DNA, single strand) CTCATTTTCCATACATTAAAGATAGTCAT; assay: luminescence enhancement; details: 1 μM compound, 5 μM DNA, 10 mM Tris, pH 7.4
[4] = system: ds26 (DNA, duplex) CAATCGGATCGAATTCGATCCGATTG; assay: FRET melting competition; details: ds26 (2 μM, 10-fold excess) as competitor of 0.2 μM labelled PS2.M; 3 μM compound; no significant change
[5] = system: HP1 (DNA, hairpin) GGTACGTGGCTGAGGCCAGTGGGTAGGGCGGGTTGGCCTCAGCCACGTACC; assay: luminescence enhancement; details: 1.1-fold emission enhancement
[6] = system: HP5 (DNA, hairpin) ACGTGGCTGAGGCCAGTGGGTAGGGCGGGTTGGCCTCAGCCACGT; assay: luminescence enhancement; details: HP5 formed in assay without Nt.BbvCI
[7] = system: PS2.M 5'-side loop n=1 (DNA, G4) GTGGGAGGGCGGGTTGG; assay: luminescence enhancement; details: 4.2-fold emission enhancement
[8] = system: PS2.M 5'-side loop n=17 (DNA, G4) GTGGGTTTTTTTTATTTTTTTTGGGCGGGTTGG; assay: luminescence enhancement; details: 9.2-fold emission enhancement
[9] = system: PS2.M (DNA, G4) GTGGGTAGGGCGGGTTGG; assay: fluorescent intercalator displacement (G4-FID); details: Tris-HCl buffer; thiazole orange displaced

In the case of `[Ir+3].[Ir+3].[c-]1ccccc1-c1ccc2ccccc2n1.[c-]1ccccc1-c1ccc2ccccc2n1.[c-]1ccccc1-c1ccc2ccccc2n1.[c-]1ccccc1-c1ccc2ccccc2n1.c1ccc(N(CCCCCN(c2ccccn2)c2ccccn2)c2ccccn2)nc1`, the ΔTm [1] is reported as ~ 12 °C, the binding [2] is reported as “no” and the binding [3] is reported as “weak”. For the same compound, the binding [4] was “weak”, the binding [5] was “weak” and the binding [6] was “weak”. The binding [7] was “yes”, the binding [8] was “yes” and the G4DC50 [9] was 7.0 µM.
